Reference: patent US10689306B2, “Fertilizer composition and methods of making and using same” (SABIC GLOBAL TECHNOLOGIES B.V., priority 2015, dated 2020)

Assays:
[1] = hot climatic region; cited from earlier work
[2] = cited from earlier work
[3] = Thermal stability of NBTPT at urea melt temperature by HPLC; format: physicochemical; conditions: 133-135° C., over time
Description: The percentage of intact NBTPT in the sample is shown in each chromatogram.
Certain fertilizer additives can be unstable and decompose at elevated temperatures. In a conventional manufacturing process, a fertilizer additive is directly exposed to the temperature of a urea melt, which is typically 133-135° C., during the granulation process. […] Accordingly, at least a portion of NBTPT is lost by using conventional methods.
The fertilizers and methods disclosed herein protect the fertilizer additive from being directly exposed to the temperature of a urea melt during the manufacturing process. The fertilizer core particle of the fertilizer comprises a binder, which protects the fertilizer additive from being directly exposed to the urea melt and the temperature of the urea melt. As such, the fertilizer additive is protected from the elevated temperature and is less likely to decompose. […] Thus, the fertilizers and methods disclosed herein prevent loss of a fertilizer additive, such as, for example, without limitation, an inhibitor, for example NBTPT, during the manufacturing process.
The thermal stability of neat NBTPT and NBTPT contained within a core, as disclosed herein, can be determined by HPLC. […] (133-135° C. is the typical temperature range of a urea melt) and can continuously be analyzed by HPLC every 5 min, until data for 30 min was collected. […]

[4] = Nitrogen loss after 17 days of exposure to Upland Crowley Soil (IFDC)
Description: The nitrogen volatilization was measured in different soils for several samples and compared to products on the market, such as Agrotain®, ESN®, and SuperU®. The samples were tested in Greenville soil, Crowley soil, and Brownfield Soil.
Crowley soil consists of very deep, somewhat poorly drained, very slowly permeable soils that formed in clayey fluviomarine deposits of the Pleistocene age. The soil exist in nearly level to very gently sloping soils and occur on flat coastal plains terraces. The slope is dominantly less than 1 percent but ranges to up to 3 percent. The mean annual precipitation is about 1549 mm (61 in), and the mean annual air temperature is about 20 degrees c. (68 degrees F.), where the soil is found. The soil is fine, smectitic, and thermic Typic Albaqualfs.

N#CN=C(N)N [DCD, dicyandiamide]
thermal stability in the soil [1]: thermal instability

CCCCNP(N)(N)=S [NBTPT, N-(n-butyl) thiophosphoric triamide]
stability under acidic pH [2]: unstable | thermal stability of neat NBTPT ([3]; neat, FIG. 13): decomposes | thermal stability of NBTPT within a fertilizer core particle ([3]; within a core, FIG. 14): stable over time and does not decompose

NC(N)=O [Urea, urea]
Cumulative Nitrogen Loss (mg) by 17 Days ([4]; 17 days of exposure to Upland Crowley Soil): 299.08 mg | % Urea ([4]; nitrogen loss relative to urea (100), 17 days, Upland Crowley Soil): 100% | % Reduction in Nitrogen Loss ([4]; versus urea, 17 days, Upland Crowley Soil): 0%
